In general, melting point refers to the temperature of the solid-liquid transition. In turn, `COC(=O)/C=C/c1cc(-c2ccc(S(C)(=O)=O)cc2)n(CC2CCCCC2)n1` returned a melting point of 48 to 50 °C. `NCCCOc1ccc(OCCCN)cc1` displayed a melting point of 73 to 74 °C.

For the compound `CCOC(=O)c1cn(CCc2ccc(OC)cc2)c2cc(C3CC3)nn2c1=O`, the melting point fell in the range of 160 to 165 °C. The figure for `CCCCC(=O)N[C@H]1CC[C@H](CCN2CCN(c3nccc4c3OCC4)CC2)CC1` is 168 °C. The figure for `CNC(=O)OCCN1C(=O)c2ccccc2C1=O` is 142 to 145 °C; for `CC1(C)Cc2ccccc2C1c1cncnc1SCc1cccc(F)c1` (centres undefined) it is 60 to 62 °C. Regarding `Nc1nc(N)c(C(=O)N=CNNC(=O)n2ccnc2)nc1F`, the melting point was in the range of 227 to 230 °C.

Consider `CCCCCCCCCCS(=O)(=O)c1ccc(O)c(C(=O)Nc2cccc(C(F)(F)F)c2)c1`, for which the melting point was in the range of 108 to 109 °C. `NCc1ccsc1CC(=O)O`: the melting point was 194 to 195 °C. The figure for `N#CC1CCc2ccc([N+](=O)[O-])cc2C(=O)C1` (centres undefined) is 107 °C; for `COc1cccc(CSCCNC(=O)c2c(OC)cccc2OC)c1` it is 41 to 43 °C. As to `Cc1c(CCN(C)C(=O)OC(C)(C)C)c2cc(S(=O)(=O)c3ccc(C(F)(F)F)cc3)ccc2n1C`, the melting point was in the range of 141 to 144 °C. For the compound `O=C(O)c1ccnc(-c2cccc3oc(Cc4cccc(C(F)(F)F)c4)cc23)c1`, the melting point was in the range of 187 to 188 °C. In the case of `COCc1ccc(C#Cc2ccc3c(c2)C(C)(C)CCC3(C)C)cc1`, the melting point was 93 to 94 °C. Compound `COC(=O)CSC(c1ccccc1Cl)c1ccccc1Cl` gave a melting point of 90 to 92 °C.

Regarding `CCOCCCc1ccc(-c2ccc3c(c2)C=C(C(=O)Nc2ccc(CN(C)C4CCOCC4)cc2)CCS3(=O)=O)cc1`, the melting point was 217 to 219 °C.

In turn, `COc1ccc(-c2nc(-c3ccccc3)ccc2C(=O)O)cc1OC` yielded a melting point of 178 °C.

For `CC1(C)COC(=O)[C@H]1NC(=O)[C@@H](CC(=O)OCc1ccccc1)n1ccc(-c2ccc(-c3ccncc3)cc2)c1`, the melting point was in the range of 175 to 177 °C.

On to `COc1ccc(C=C(Br)Br)c(OC)c1`, for which the melting point is 147 to 148 °C. Turning to `NC(=O)c1cc(-c2cccc3cc(Cc4cc(F)cc(Cl)c4)sc23)ccc1F`, the melting point fell in the range of 169 to 170 °C. In the case of `O=c1[nH]c2cc([N+](=O)[O-])c(-n3ccc(C=NO)c3)cc2n(C2CCCCC2)c1=O`, the melting point turned out to be 234 °C. The figure for `O=C(c1ccc2[nH]ccc2c1)N1CCN(CCc2ccccc2)CC1` is 105 to 108 °C; for `COc1ccc(Nc2ccc(OC)c3ccccc23)cc1C(=O)O` it is 153 to 154 °C; for `CN1CCN(c2cc(Cl)cc3c2c(=O)n(Cc2ccccc2)c(=O)n3Cc2ccccc2)CC1` it is 113 to 116 °C. As to `NC1=NN(C(=O)NC=NO)C(=O)C1Cc1ccccc1` (centres undefined), the melting point came to 195 °C.

For the compound `C#CCn1cc(C=O)c([N+](=O)[O-])c1`, the melting point turned out to be 120 °C. The value for `Cc1ccc(NC(=O)c2c(C)cccc2NC(=O)OC(C)(C)C)cc1` was 250 °C.

The compound `CC(C)NC(=O)COC1c2ccccc2C(=O)N1c1ccc2ccc(Cl)nc2n1` (centres undefined) came in with a melting point of 188 °C. As for `CC(C)n1nc(-c2sc(NC(=O)N3CCOCC3)nc2-c2ccccc2)ccc1=O`, the melting point lay in the range of 231 to 232 °C. Regarding `O=C(c1ccc(F)cc1)N1CCC[C@H](c2noc(-c3ccc(F)cc3)n2)C1`, the melting point fell in the range of 120 to 123 °C.

The compound `O=P(O)(O)C1(P(=O)(O)O)CCCN1` showed a melting point of 80 °C. In turn, `CC(=O)Nn1cnn(C2CCc3ccccc3C2)c1=S` (centres undefined) yielded a melting point of 199 to 201 °C. As for `COC(=O)C(C)(C)OCc1cc2cc(Cl)ccc2n1S(=O)(=O)c1ccc2sc(C)nc2c1`, the melting point is 132 to 134 °C. The value for `O=C1N(CO)CCN1C(c1ccccc1)c1ccccc1` was 134 °C; that for `O=C1Nc2ccccc2Sc2ccccc21` was 258 to 259 °C; that for `CC1(C)C=Cc2cc(C(=O)NCCCCc3ccccc3)ccc2O1` was 65 to 70 °C.

For the compound `Cc1nc(-c2ccccc2)nc(-c2cccc([N+](=O)[O-])c2)c1C(=O)N1CCN(C)CC1`, the melting point was 153 to 155 °C. In the case of `CC(=O)Oc1cccc(C(=O)NCCO[N+](=O)[O-])c1`, the melting point was 89 to 91 °C. Turning to `CCC1(C)CC(O)C2(C)CCC3c4ccc(OC)cc4CCC3C12` (centres undefined), the melting point lay within 133 to 136 °C.

In the case of `Fc1cccc2onc(Nc3ccncc3)c12`, the melting point fell in the range of 160 to 161 °C. As for `N#Cc1cn(C2OC(CO)C(O)C2O)c2ncn(O)c(=O)c12` (centres undefined), the melting point lay within 229 to 231 °C. For the compound `O=C(Cn1nc(-c2ccccc2O)nc1-c1ccccc1O)NCC(O)CO` (centres undefined), the melting point is 180 to 181 °C.

In turn, `Cc1nc(-c2ccc(C(F)(F)F)cc2)oc1COc1ccc(CCC(=O)O)cc1` showed a melting point of 98 to 100 °C. For the compound `CC(C)(C)OC(=O)C[C@@H]1C[C@@H](COc2ccc(-c3ccc(C#N)c(Cl)c3)cc2)NC1=O`, the melting point lay in the range of 140 to 142 °C. Take `OCC1COC(Cc2nc[nH]n2)(c2ccc(Cl)cc2)O1` (centres undefined): the melting point was 115 to 117 °C. As for `O=C1CC(O)CC(/C=C/c2cccc(Cl)c2Cl)O1` (centres undefined), the melting point lay within 122 to 123 °C. For `N#Cc1cnc(N)nc1-c1ccccc1`, the melting point was 147 °C. The value for `CCOC(=O)c1c(-c2ccccc2C)c2cc(C)c(Cl)cc2n(C)c1=O` was 121 to 123 °C; that for `Cn1c(C(F)(F)F)cc(=O)n(-c2cc(OCc3ccc(C(C)(C)C)cc3)c(Cl)cc2F)c1=O` was 156 to 158 °C; that for `CCC(C)(N=NC(C)(CC)NC(=O)NC1CCCCC1)NC(=O)NC1CCCCC1` (centres undefined) was 110 to 113 °C.

Compound `C1=C(c2ccccc2)CCN(CCCCc2cnc3ccccc3c2)C1` registered a melting point of 92.8 to 93.9 °C.

On to `COc1cccc(CCNC(=O)c2ccc3c(c2)C=CC(C)(C)O3)c1`, for which the melting point fell in the range of 105 to 110 °C.

The compound `CCCOc1ccccc1C1=NC(=O)C2=NC(c3ccccc3)=NC2=N1` had a melting point of 259 to 260 °C. `CCNc1ccc(C(C)=O)cc1S(N)(=O)=O` gave a melting point of 201 to 204 °C.

`CCC1(CC)C(=O)N(c2ccccc2)CC(C)(C)N1OC(C)c1ccccc1` (centres undefined) registered a melting point of 78 to 81 °C. The compound `Cc1occ(-c2ccccc2F)c1C(=O)Nc1cccc(CO)c1` displayed a melting point of 163 to 164 °C.

For `CCOC(=O)C1=C(C)NN=C(C(=O)OC)C1c1ccccc1[N+](=O)[O-]` (centres undefined), the melting point was in the range of 168 to 169 °C. As to `Cc1ccc(S(=O)(=O)OCC2Cc3cc(Cl)cc(-c4cccc(Cl)c4)c3O2)cc1` (centres undefined), the melting point was in the range of 80 to 82 °C.

The compound `CCOC(=O)Cc1sc(Sc2nccc(C)c2C(=O)O)nc1C` yielded a melting point of 169 to 171 °C. Compound `CCCc1ccc2c(c1)C(=O)N(c1ccc(C(C)C(=O)OC(C)(C)C)cc1)C2` (centres undefined) displayed a melting point of 110 to 115 °C. The value for `CC(C)(C)NC(=O)[C@@H]1C[C@H](O)CN1C(=O)[C@@H](O)[C@H](Cc1ccccc1)NC(=O)[C@H](CC(N)=O)NC(=O)OCc1ccccc1` was 113 to 115 °C; that for `Cn1cc(C(O)(c2ccc3c(cnn3C(=O)OC3CCC3)c2)C(F)(F)F)c2ccccc21` (centres undefined) was 82 to 84 °C; that for `COC(=O)/C(=C/C=C/c1cc2cc(OC)ccc2[nH]1)OC` was 150 to 151 °C. `O=[N+]([O-])c1cc2c(Cl)ncnc2s1` registered a melting point of 112 °C. In turn, `O=[N+]([O-])c1ccc2nc(-c3ccccc3)cc(Cl)c2c1` gave a melting point of 166 to 167 °C. Compound `O=C(NCc1ccc2c(c1)OCO2)c1ccc2n1Cc1ccccc1N(C(=O)COc1ccc(Cl)cc1)C2` displayed a melting point of 168 to 169 °C. `CC12CC(=O)C3C(CCC4CC(O)CCC43C)C1CCC2C(=O)COCCN1CCOCC1` (centres undefined) returned a melting point of 112 to 113 °C. The value for `CC1(C)CC(=O)C(C(=O)Nc2ccc(Cl)c(C(F)(F)F)c2)C(=O)O1` (centres undefined) was 156 °C. The figure for `Cc1cnc(C(=O)c2[nH]c3ccc(Cl)cc3c2CC(=O)O)cc1C` is 245 to 246 °C.
